Laboratory results published in patent publication US20240009105A1, “TETRAPEPTIDE AND COMPOSITIONS COMPRISING TETRAPEPTIDES” (THE BOOTS COMPANY PLC, priority 2020, published 2024).
Marks after values point to notes of the source that are not given here.

Test system: Fibrillin 1
Assay: Fibrillin 1 expression in primary human dermal fibroblasts by immunofluorescence
Format: cell-based
Conditions: HDF cells, 10 ppm peptide, cultured 5 days, immunofluorescence fibre density
Protocol: The synergistic activity of the tetrapeptides of the present invention were assessed to determine the expression of dermal extracellular protein Fibrillin 1 using immunofluorescence.
Primary Human dermal fibroblast (HDFs) cells were purchased from Promo Cell and came from a donor. Cells were grown in wells of 96-well black walled, clear bottomed, plates (as purchased from Pierce, Thermo Fisher). Cells were cultured in Human Dermal Fibroblast media (PromoCell) supplemented with Basic Fibroblast Growth Factor (recombinant human), 1 ng/ml and Insulin 5 μg/mL Cells were cultured for 5 days in the presence of the tetrapeptides combination of the present invention, changing media and peptides every 48 hours, followed by immunofluorescence assessment. At the time of treatment cells were at passage 3-4. After 5 days the media was discarded, and cells fixed with methanol. […]
The antibody binding to Fibrillin 1 fibres was visualised using a Nikon Eclipse 100 microscope fluorescence setting using an excitation lens for fluorescein isothiocyanate (FITC). […] Image-J software was used to quantify the Fibrillin 1 fibre abundance and coverage in each image using a threshold of 235 measuring the fibre density.
Results are expressed as an average percentage increase in fibrillin abundance compared to untreated control.

Substance	Fibrillin 1 (average percentage increase in fibrillin abundance compared to untreated control)
Pal-GPKG-OH	+131%^a
Pal-LSVD-OH	+185%^a
